Bridge positions count the residues as written; N and C are the ends. Square brackets hold non-standard residues; d marks the D form. Peptide text beside a SMILES is read from it. * marks the point of attachment. ξ: configuration not given here. Bip = N[C@@H](Cc1ccc(-c2ccccc2)cc1)C(=O)O; Phe(3-Me) = Cc1cccc(C[C@H](N)C(=O)O)c1; Cha = N[C@@H](CC1CCCCC1)C(=O)O; Cit = NC(=O)NCCC[C@H](N)C(=O)O; NMeN = CN[C@@H](CC(N)=O)C(=O)O; dNMeN = CN[C@H](CC(N)=O)C(=O)O; Thr(3ξ) = CC(O)[C@H](N)C(=O)O; Carboxymethyl = O=C(O)C*; Orn = NCCC[C@H](N)C(=O)O; Aun = NCCCCCCCCCCC(=O)O; Dab = NCC[C@H](N)C(=O)O; AEEA = NCCOCCOCC(=O)O
target: T1, PD-1/PD-L1 interaction (PE-labeled human PD-L1-Ig binding to Jurkat cell line over-expressing human PD-1) (Homo sapiens, UniProt Q15116); test: Jurkat-PD-1 Cell Binding High-Content Screening Assay (CBA); assay type: cell-based; conditions: Jurkat cell line over-expressing human PD-1; PE-labeled PD-L1-Ig 20 nM final; read-out: Jurkat hPD1-PDL1 IC50
T1 construct: expressed in transfected cells; host or cells: Jurkat
T1 sequence (Q15116 25-288): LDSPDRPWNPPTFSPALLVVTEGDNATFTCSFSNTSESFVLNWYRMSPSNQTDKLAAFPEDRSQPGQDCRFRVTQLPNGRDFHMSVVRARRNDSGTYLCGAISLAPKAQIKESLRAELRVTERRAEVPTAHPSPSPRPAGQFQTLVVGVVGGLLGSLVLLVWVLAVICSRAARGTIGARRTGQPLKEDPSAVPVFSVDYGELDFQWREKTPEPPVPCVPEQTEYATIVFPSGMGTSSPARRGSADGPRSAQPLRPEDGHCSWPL
Procedure, shortened: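 Jurkat-hPD-1 cells, DMEM/10% FCS; cpd 2 h 37° C; PE-PD-L1-Ig 20 nM final, 1 h; 4% PFA fix + Hoechst 33342, 3× dPBS wash; high-content imaging read-out.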

| SMILES | IC50 [nM] |
| --- | --- |
| Cc1cccc(C[C@@H]2NC(=O)[C@H](CC(=O)O)NC(=O)[C@H](Cc3ccc(OCC(=O)O)cc3)NC(=O)[C@H](C(C)O)NC(=O)CSC[C@@H](C(=O)N[C@H](CCC(=O)O)C(=O)NCCCCCCCCCCC(=O)O)NC(=O)[C@H](C(C)O)NC(=O)[C@H](C(C)C)NC(=O)[C@H](CC3CCCCC3)NC(=O)[C@H](CCN)NC(=O)[C@@H](CC(C)C)NC(=O)[C@H](CCCN)NC(=O)[C@H](C(C)C)NC(=O)[C@H](Cc3ccc(-c4ccccc4)cc3)NC(=O)[C@H](Cc3ccc(O)cc3)NC2=O)c1 (stereo partly drawn) [Compound 3435] ({CH2CO}-[Thr(3ξ)]Y(Carboxymethyl)D[Phe(3-Me)]Y[Bip]V[Orn][dL][Dab][Cha]V[Thr(3ξ)]C[dE][Aun]-OH; thioether N-14) | 12.9 |
| Cc1cccc(C[C@@H]2NC(=O)[C@H](CC(=O)O)NC(=O)[C@H](Cc3ccc(OCC(=O)O)cc3)NC(=O)[C@H](C(C)O)NC(=O)CSC[C@@H](C(=O)N[C@H](CC(N)=O)C(=O)NCCCCCCCCCCC(=O)O)NC(=O)[C@H](C(C)O)NC(=O)[C@H](C(C)C)NC(=O)[C@H](CC3CCCCC3)NC(=O)[C@H](CCN)NC(=O)[C@@H](CC(C)C)NC(=O)[C@H](CCCN)NC(=O)[C@H](C(C)C)NC(=O)[C@H](Cc3ccc(-c4ccccc4)cc3)NC(=O)[C@H](C(C)C)NC2=O)c1 (stereo partly drawn) [Compound 3436] ({CH2CO}-[Thr(3ξ)]Y(Carboxymethyl)D[Phe(3-Me)]V[Bip]V[Orn][dL][Dab][Cha]V[Thr(3ξ)]C[dN][Aun]-OH; thioether N-14) | 17 |
| CC(=O)NCCCC[C@@H]1NC(=O)[C@H](Cc2ccc(-c3ccccc3)cc2)NC(=O)[C@H](C(C)C)NC(=O)[C@H](Cc2cccc(C)c2)NC(=O)[C@H](CC(=O)O)NC(=O)[C@H](Cc2ccc(OCC(=O)O)cc2)NC(=O)[C@H](C(C)O)NC(=O)CSC[C@@H](C(=O)N[C@H](CC(N)=O)C(=O)NCCCCCCCCCCC(=O)O)NC(=O)[C@H](CCC(N)=O)NC(=O)[C@H](C(C)C)NC(=O)[C@H](CC2CCCCC2)NC(=O)[C@H](CCN)NC(=O)[C@@H](CC(C)C)NC(=O)[C@H](CCCN)NC1=O (stereo partly drawn) [Compound 3437] ({CH2CO}-[Thr(3ξ)]Y(Carboxymethyl)D[Phe(3-Me)]V[Bip]K(Ac)[Orn][dL][Dab][Cha]VQC[dN][Aun]-OH; thioether N-14) | 11.2 |
| CC(C)C[C@H]1NC(=O)[C@H](CCCN)NC(=O)[C@H](C(C)C)NC(=O)[C@H](Cc2ccc(-c3ccccc3)cc2)NC(=O)[C@H](C(C)C)NC(=O)[C@H](Cc2c[nH]c3ccccc23)NC(=O)[C@H](CC(=O)O)NC(=O)[C@H](Cc2ccc(OCC(=O)O)cc2)NC(=O)[C@H](CCCNC(=N)N)NC(=O)CSC[C@@H](C(=O)N(C)[C@@H](CC(N)=O)C(=O)NCCCCCCCCCCC(=O)O)NC(=O)[C@H](CO)NC(=O)[C@H](C(C)C)NC(=O)[C@H](CC2CCCCC2)NC(=O)[C@H](CCN)NC1=O [Compound 3438] ({CH2CO}-RY(Carboxymethyl)DWV[Bip]V[Orn][dL][Dab][Cha]VSC[NMeN][Aun]-OH; thioether N-14) | 66.1 |
| Cc1cccc(C[C@@H]2NC(=O)[C@H](CC(=O)O)NC(=O)[C@H](Cc3ccc(OCC(=O)O)cc3)NC(=O)[C@H](C(C)O)NC(=O)CSC[C@@H](C(=O)N[C@@H](CCN)C(=O)NCCCCCCCCCCC(=O)O)NC(=O)[C@H](C(C)O)NC(=O)[C@H](C(C)C)NC(=O)[C@H](CC3CCCCC3)NC(=O)[C@H](CCN)NC(=O)[C@@H](CC(C)C)NC(=O)[C@H](CCCN)NC(=O)[C@H](CCC(=O)O)NC(=O)[C@H](Cc3ccc(-c4ccccc4)cc3)NC(=O)[C@H](C(C)C)NC2=O)c1 (stereo partly drawn) [Compound 3441] ({CH2CO}-[Thr(3ξ)]Y(Carboxymethyl)D[Phe(3-Me)]V[Bip]E[Orn][dL][Dab][Cha]V[Thr(3ξ)]C[Dab][Aun]-OH; thioether N-14) | 39.7 |
| Cc1cccc(C[C@@H]2NC(=O)[C@H](CC(=O)O)NC(=O)[C@H](Cc3ccc(OCC(=O)O)cc3)NC(=O)[C@H](C(C)O)NC(=O)CSC[C@@H](C(=O)NCCOCCOCC(=O)NCCCCCCCCCCC(=O)O)NC(=O)[C@H](C(C)O)NC(=O)[C@H](C(C)C)NC(=O)[C@H](CC3CCCCC3)NC(=O)[C@H](CCN)NC(=O)[C@@H](CC(C)C)NC(=O)[C@H](CCN)NC(=O)[C@H](C(C)C)NC(=O)[C@H](Cc3ccc(-c4ccccc4)cc3)NC(=O)[C@H](C(C)C)NC2=O)c1 (stereo partly drawn) [Compound 3442] ({CH2CO}-[Thr(3ξ)]Y(Carboxymethyl)D[Phe(3-Me)]V[Bip]V[Dab][dL][Dab][Cha]V[Thr(3ξ)]C[AEEA][Aun]-OH; thioether N-14) | 16.4 |
| CC(=O)NCCCC[C@@H]1NC(=O)[C@H](C(C)C)NC(=O)[C@H](CC2CCCCC2)NC(=O)[C@H](CCN)NC(=O)[C@@H](CC(C)C)NC(=O)[C@H](CCN)NC(=O)[C@H](C(C)C)NC(=O)[C@H](Cc2ccc(-c3ccccc3)cc2)NC(=O)[C@H](C(C)C)NC(=O)[C@H](Cc2cccc(C)c2)NC(=O)[C@H](CC(=O)O)NC(=O)[C@H](Cc2ccc(OCC(=O)O)cc2)NC(=O)[C@H](C(C)O)NC(=O)CSC[C@@H](C(=O)NCCOCCOCC(=O)NCCCCCCCCCCC(=O)O)NC1=O (stereo partly drawn) [Compound 3443] ({CH2CO}-[Thr(3ξ)]Y(Carboxymethyl)D[Phe(3-Me)]V[Bip]V[Dab][dL][Dab][Cha]VK(Ac)C[AEEA][Aun]-OH; thioether N-14) | 12 |
| Cc1cccc(C[C@@H]2NC(=O)[C@H](CC(=O)O)NC(=O)[C@H](Cc3ccc(OCC(=O)O)cc3)NC(=O)[C@H](C(C)O)NC(=O)CSC[C@@H](C(=O)N[C@H](CC(N)=O)C(=O)NCCCCCCCCCCC(=O)O)NC(=O)[C@H](C(C)O)NC(=O)[C@H](C(C)C)NC(=O)[C@H](CC3CCCCC3)NC(=O)[C@H](CCN)NC(=O)[C@@H](CC(C)C)NC(=O)[C@H](CCCN)NC(=O)[C@H](CCCNC(N)=O)NC(=O)[C@H](Cc3ccc(-c4ccccc4)cc3)NC(=O)[C@H](C(C)C)NC2=O)c1 (stereo partly drawn) [Compound 3444] ({CH2CO}-[Thr(3ξ)]Y(Carboxymethyl)D[Phe(3-Me)]V[Bip][Cit][Orn][dL][Dab][Cha]V[Thr(3ξ)]C[dN][Aun]-OH; thioether N-14) | 13.6 |
| CC(=O)NCCCC[C@@H]1NC(=O)[C@H](C(C)C)NC(=O)[C@H](CC2CCCCC2)NC(=O)[C@H](CCN)NC(=O)[C@@H](CC(C)C)NC(=O)[C@H](CCCN)NC(=O)[C@H](C(C)C)NC(=O)[C@H](Cc2ccc(-c3ccccc3)cc2)NC(=O)[C@H](C(C)C)NC(=O)[C@H](Cc2cccc(C)c2)NC(=O)[C@H](CC(=O)O)NC(=O)[C@H](Cc2ccc(OCC(=O)O)cc2)NC(=O)[C@H](C(C)O)NC(=O)CSC[C@@H](C(=O)N(C)[C@H](CC(N)=O)C(=O)NCCCCCCCCCCC(=O)O)NC1=O (stereo partly drawn) [Compound 3445] ({CH2CO}-[Thr(3ξ)]Y(Carboxymethyl)D[Phe(3-Me)]V[Bip]V[Orn][dL][Dab][Cha]VK(Ac)C[dNMeN][Aun]-OH; thioether N-14) | 160 |
| CC(C)C[C@H]1NC(=O)[C@H](CCCN)NC(=O)[C@H](CCCNC(N)=O)NC(=O)[C@H](Cc2ccc(-c3ccccc3)cc2)NC(=O)[C@H](C(C)C)NC(=O)[C@H](Cc2c[nH]c3ccccc23)NC(=O)[C@H](CC(=O)O)NC(=O)[C@H](Cc2ccc(OCC(=O)O)cc2)NC(=O)[C@H](C(C)O)NC(=O)CSC[C@@H](C(=O)N[C@H](CCC(N)=O)C(=O)NCCCCCCCCCCC(=O)O)NC(=O)[C@H](C(C)O)NC(=O)[C@H](C(C)C)NC(=O)[C@H](CC2CCCCC2)NC(=O)[C@H](CCN)NC1=O (stereo partly drawn) [Compound 3446] ({CH2CO}-[Thr(3ξ)]Y(Carboxymethyl)DWV[Bip][Cit][Orn][dL][Dab][Cha]V[Thr(3ξ)]C[dQ][Aun]-OH; thioether N-14) | 65.2 |
